These results are taken from PubChem BioAssay AID1996.

Converted amounts (≈) assume the structure as drawn.

The conditions of the series: buffer; pH 7.4; 200.0 µM.
For `COc1ccc(CCC(=O)OCC(=O)NC(=O)c2ccc(Cl)cc2)cc1`, the solubility (kinetic) – broadly, the concentration staying in solution when a stock, usually in DMSO, is diluted into the medium – came to 7.2 µg/mL (≈ 19.2 µM). For `COc1ccc(C(=O)N[C@H](C(=O)NCCCSc2ccccc2)C(C)C)cc1`, the solubility (kinetic) was determined as 2.2 µg/mL (≈ 5.49 µM).

In the case of `O=C(Nc1cccc2ncccc12)c1ccccc1F`, the solubility (kinetic) was 39.7 µg/mL (≈ 149 µM). In turn, `COCCN=C(NS(=O)(=O)c1cccs1)c1ccccc1Cl` gave a solubility (kinetic) above 53.8 µg/mL.

`N/C(=N\OC(=O)CCCc1ccccc1)c1ccccc1` registered a solubility (kinetic) of 7.2 µg/mL (≈ 25.5 µM). In the case of `Cn1cccc1-c1nc2ccc([N+](=O)[O-])cc2[nH]1`, the kinetic solubility worked out at 15.2 µg/mL (≈ 62.7 µM). The compound `O=C(O)CCC(=O)NCC(=O)c1ccc(F)cc1` returned a kinetic solubility above 38 µg/mL. In the case of `O=C(O)c1ccccc1-c1ccccc1C(=O)Nc1ccc(OC(F)(F)F)cc1`, the kinetic solubility was above 60.2 µg/mL. Under `COc1ccccc1NC1=NC(CO)(CO)CS1` stands above 40.2 µg/mL; under `CN(C)CCN(Cc1cccs1)c1ccccn1.Cl`, above 44.7 µg/mL. Under `CC(=O)c1cccc(OCC(=O)N(C)CC(=O)NCc2ccco2)c1` stands above 51.7 µg/mL; under `CCOC(=O)C1CCN(C(=O)Nc2c(-c3ccccc3)noc2C)CC1`, 52.1 µg/mL (≈ 146 µM). In the case of `CC(=O)Cc1nsc(Nc2ccc(C)cc2)n1`, the kinetic solubility was determined as 35.9 µg/mL (≈ 145 µM). `Cn1cccc1C1CCCN1CC(=O)Nc1ccc(F)c(F)c1F` (stereo not drawn) registered a solubility (kinetic) above 50.6 µg/mL. `O=C(CNc1cccc(Cl)c1)c1ccc(Br)cc1` showed a solubility (kinetic) below 0.7 µg/mL. Compound `Cc1ccc2oc(C(=O)Nc3nonc3C)c(C)c2c1` came in with a kinetic solubility below 0.2 µg/mL. For `Cc1ccc(S(=O)(=O)N2CCOCC2)cc1C(=O)N1CCCC1`, the solubility (kinetic) is above 50.8 µg/mL.

For `O=C(Nc1ccccc1N1CCOCC1)c1ccc(Cl)nc1`, the kinetic solubility was above 47.7 µg/mL. `CN(C)C(=O)COC(=O)c1ccccc1NC(=O)c1ccco1` gave a solubility (kinetic) above 47.4 µg/mL.

Compound `O=C(CNS(=O)(=O)c1ccccc1)N1CCc2ccccc2C1` displayed a kinetic solubility above 49.6 µg/mL. `Cc1ccc(C(=O)N/C(=C/c2ccco2)C(=O)N2CCC(C)CC2)cc1`: the kinetic solubility is above 52.9 µg/mL. `O=C(CSc1ncccn1)NC(=O)c1ccccc1` came in with a kinetic solubility of 33.1 µg/mL (≈ 121 µM). Consider `CCC(CC)C(=O)Nc1ccc(-c2cn3cccnc3n2)cc1`, for which the solubility (kinetic) worked out at 43.4 µg/mL (≈ 141 µM). To `COc1cc(C(C)=O)ccc1OCC(=O)NC(=O)Nc1ccc(C)cc1C` belongs 14.1 µg/mL (≈ 38.1 µM); to `Cc1cc2ccc3ccccc3c2cc1CN(C)C.Cl`, 24.5 µg/mL.

The compound `CCOC(=O)c1c(C)[nH]c(C(=O)COC(=O)CCNS(=O)(=O)c2ccc(NC(C)=O)cc2)c1C` came in with a solubility (kinetic) of 19.2 µg/mL (≈ 38.9 µM).

The compound `CC(C)c1ccccc1NC(=S)NCC1(N(C)C)CCCCC1` yielded a solubility (kinetic) of 45.9 µg/mL (≈ 138 µM). Compared with the last compound, the solubility kinetic is about 2.4-fold higher. In turn, `COc1ccc2c(c1)CCC/C2=N\OC(=O)c1ccccc1F` had a kinetic solubility below 0.7 µg/mL. In turn, `Cc1ccc(C(C)C)c(OCCOCCN2CCNCC2)c1.O=C(O)C(=O)O` displayed a kinetic solubility of 52.1 µg/mL. With `O=C1CN(C(=O)COC(=O)[C@@H]2CCCN2S(=O)(=O)c2ccc(Cl)cc2)c2ccccc2N1`, the solubility (kinetic) amounted to 59.1 µg/mL (≈ 124 µM).

In turn, `O=C1CNC(=S)N1CCc1ccc(O)c(O)c1` had a solubility (kinetic) of 32.3 µg/mL (≈ 128 µM). With `C1=CCN(Cc2ccccc2)C1`, the solubility (kinetic) was 4.1 µg/mL (≈ 25.7 µM). This solubility kinetic is about 7.9-fold lower than that of the compound before. In turn, `CN1CCN(Cc2cn(C)c3ccccc23)CC1CCO` (stereo not drawn) had a solubility (kinetic) of 32.3 µg/mL (≈ 112 µM). As to `COc1cc(C)c(C)cc1S(=O)(=O)N1CCCc2ccccc21`, the kinetic solubility was found to be 4.9 µg/mL (≈ 14.8 µM). To `COc1ccc2[nH]cc(S(=O)(=O)c3ccc(C)cc3)c2c1` belongs 30.2 µg/mL (≈ 100 µM). Under `O=C(NCc1ccccc1F)Nc1ccc([N+](=O)[O-])cc1` stands 1.3 µg/mL (≈ 4.49 µM).

`O=C(c1ccccc1)C1NC1c1ccccc1` (stereo not drawn) displayed a solubility (kinetic) of 26.9 µg/mL (≈ 120 µM). To `Cc1cc(NS(=O)(=O)c2ccc(NC(=O)c3ccc(F)cc3)cc2)nc(C)n1` belongs above 60.1 µg/mL; to `CCC1CCCCN1C(=O)/C=C/c1ccc2c(c1)OCO2` (stereo not drawn), above 43.1 µg/mL. In turn, `Fc1ccc2[nH]c3c(N4CCc5ccccc5C4)ncnc3c2c1` displayed a solubility (kinetic) of 1.2 µg/mL (≈ 3.77 µM). Regarding `COc1ccc(-c2nc(-c3ccncc3)no2)cc1`, the kinetic solubility amounted to 1.1 µg/mL (≈ 4.34 µM).

The compound `CC(=O)c1ccc(S(=O)(=O)NCC(=O)NC(c2nc3ccccc3[nH]2)C(C)C)cc1` (stereo not drawn) gave a kinetic solubility above 64.3 µg/mL.

Turning to `O=[N+]([O-])c1ccc(-c2cn(-c3ccccc3F)c(=S)[nH]2)cc1`, the solubility (kinetic) worked out at 0.6 µg/mL (≈ 1.9 µM). Under `CCCCCC(=O)O/N=C(\C)c1ccn(S(=O)(=O)c2ccccc2)c1` stands 1.3 µg/mL (≈ 3.59 µM). As to `COc1ccc(C(=O)c2oc3ccc(OC)cc3c2NC(C)=O)cc1`, the kinetic solubility was below 0.7 µg/mL. The compound `COc1ccccc1CCNC(=O)c1ccc(Br)s1` showed a solubility (kinetic) of 29 µg/mL (≈ 85.2 µM). `Cc1ccc(SCC(=O)NCc2ccccc2)cc1` had a solubility (kinetic) above 40.7 µg/mL.

Compound `CC1CN(C(=O)/C=C/c2ccc(SC(F)F)cc2)CC(C)O1` (stereo not drawn) registered a kinetic solubility of 36.3 µg/mL (≈ 111 µM).

`CCOC(=O)c1c(C)[nH]c(C)c1C(=O)COC(=O)Cc1ccc(OC)c(OC)c1` showed a solubility (kinetic) above 60.5 µg/mL. In the case of `COc1nc2ccccc2nc1CCC(=O)O`, the kinetic solubility is above 34.8 µg/mL. `Cc1ccc(NC(=O)CNC(=O)c2cccc(Cl)c2)nc1` gave a kinetic solubility of 11.7 µg/mL (≈ 38.5 µM).

In turn, `C=CCN=C1S/C(=C/c2ccc([N+](=O)[O-])cc2)C(=O)N1CC=C` came in with a kinetic solubility below 0.2 µg/mL. On to `Cc1ccc(-c2nc(CN3CCN(c4cnccn4)CC3)c(C)o2)o1`, for which the solubility (kinetic) amounted to 38.3 µg/mL (≈ 113 µM). Compound `O=C(NCc1ccc(F)cc1)c1ccc[nH]1` gave a solubility (kinetic) above 32.7 µg/mL. `COc1ccc(NC(=O)NC2CCCCCCC2)cc1` came in with a kinetic solubility of 2.5 µg/mL (≈ 9.05 µM). To `NC(=O)CSc1nnc(Cc2ccc3c(c2)OCO3)o1` belongs above 44 µg/mL. Consider `CC(C)c1ccc(NC(=O)C2CSC3(C)CCC(=O)N23)cc1` (stereo not drawn), for which the solubility (kinetic) worked out at 24.9 µg/mL (≈ 78.2 µM).

Turning to `Cc1ccc2cc(NC(=O)Cc3ccccc3)ccc2n1`, the kinetic solubility is 32.6 µg/mL (≈ 118 µM).

`CCC(C)NC(=O)c1ccc(CN2CCc3ccccc3C2)cc1` (stereo not drawn) displayed a kinetic solubility of 7.1 µg/mL (≈ 22 µM). Take `O=C(O)c1nccnc1C(=O)NCc1csc2ccc(Cl)cc12`: the solubility (kinetic) was 46.4 µg/mL (≈ 133 µM).

`Cc1ccccc1Nc1nnc(SCC(=O)NCC2CCCO2)s1` (stereo not drawn) came in with a solubility (kinetic) above 54.7 µg/mL. Take `O=C(c1cccc(NS(=O)(=O)c2cccc(F)c2)c1)N1CCCC1`: the kinetic solubility amounted to 51 µg/mL (≈ 146 µM). Turning to `Cc1cc(Cl)ccc1NS(=O)(=O)c1c(C)[nH]c(=O)[nH]c1=O`, the solubility (kinetic) was above 49.5 µg/mL. Take `Brc1ccc(OCCN2CCOCC2)cc1`: the solubility (kinetic) stood at 29 µg/mL (≈ 101 µM). `Cc1sc2ccccc2[n+]1CC(=O)c1ccccc1.[Br-]` showed a solubility (kinetic) of 42.6 µg/mL. Compound `CCC(=O)Nc1cccc(C(=O)c2ccc(C)c(C)c2)c1` returned a solubility (kinetic) of 28 µg/mL (≈ 99.5 µM). As to `CCOC(=O)c1c(C)[nH]c(C)c1C(=O)COC(=O)[C@@H](NC(=O)c1ccco1)C(C)C`, the solubility (kinetic) is above 62.8 µg/mL. Compound `CCCCn1c(NC(=O)c2ccco2)c(C(=O)OCC)c2nc3ccccc3nc21` yielded a solubility (kinetic) of 4.9 µg/mL (≈ 12.1 µM). Under `Cl.Nc1ncnc2nc[nH]c12` stands above 25.7 µg/mL; under `NS(=O)(=O)c1ccc(NC(=O)CCC(=O)c2cccs2)cc1`, 14.7 µg/mL (≈ 43.4 µM). With `O=C(COC(=O)c1cnccn1)Nc1ccccc1-c1ccccc1`, the solubility (kinetic) was above 50 µg/mL. Under `COc1ccc(CC(=O)O/N=C(\N)Cc2ccc([N+](=O)[O-])cc2)cc1` stands 5.6 µg/mL (≈ 16.3 µM); under `CN(C)c1ccc(C(=O)NCc2ccc3c(c2)OCO3)cc1`, 10.2 µg/mL (≈ 34.2 µM). To `Cc1ccc(CN(C)C(=O)CCNS(=O)(=O)c2ccccc2)o1` belongs above 50.5 µg/mL; to `Cc1csc2c(NCCCN3CCOCC3)ncnc12`, above 43.9 µg/mL. On to `O=C(O)CCN1C(=O)S/C(=C\c2cccnc2)C1=O`, for which the solubility (kinetic) was above 41.7 µg/mL. For `O=C(COc1ccc(S(=O)(=O)N2CCCC2)cc1)N1CCCCC1`, the kinetic solubility worked out at 47.6 µg/mL (≈ 135 µM).

With `COc1ccc(N2C(=O)c3ccccc3C2=O)cc1`, the kinetic solubility worked out at 10.7 µg/mL (≈ 42.2 µM). This solubility kinetic is about 4.4-fold lower than that of the compound before. `O=C(CNC(=O)c1ccc(Br)cc1)NC1CC1` had a kinetic solubility above 44.6 µg/mL. `COc1ccccc1N1CCN(C(=O)c2cc3ccccc3[nH]2)CC1`: the solubility (kinetic) was determined as 2.7 µg/mL (≈ 8.05 µM). Take `COc1ccccc1N1C(=O)c2cccnc2C1=O`: the solubility (kinetic) stood at 34.9 µg/mL (≈ 137 µM). Against the preceding compound, the solubility kinetic is about 13-fold higher. As to `COc1ccccc1NC(=O)c1ccccc1Nc1ccccc1`, the solubility (kinetic) was found to be 0.5 µg/mL (≈ 1.57 µM). To `C/C(Cn1ncc(N2CCOCC2)c(Cl)c1=O)=N\O` belongs above 43 µg/mL; to `CC1CCCC(NC(=O)COC(=O)c2ccc(Br)o2)C1C` (stereo not drawn), 8.2 µg/mL (≈ 22.9 µM); to `COc1ccc(Cn2c(=O)oc3ccc(C)cc32)cc1`, 1.2 µg/mL (≈ 4.46 µM).

Take `O=c1cc(CCl)nc2scc(-c3ccccc3)n12`: the solubility (kinetic) is above 41.5 µg/mL. In the case of `Cn1c(=NC(=O)c2cccc([N+](=O)[O-])c2)sc2ccccc21`, the solubility (kinetic) is below 0.2 µg/mL.

In the case of `COc1nc(C)ccc1-c1noc(-c2cccnc2)n1`, the solubility (kinetic) turned out to be 14.6 µg/mL (≈ 54.4 µM). The compound `CN(C)/C=C/C(=O)c1ccc(OCCN(C)c2ccccn2)cc1` gave a solubility (kinetic) above 48.8 µg/mL. For the compound `CS(=O)(=O)N(CC(=O)N1CCCC1)Cc1ccccc1`, the kinetic solubility is above 44.5 µg/mL. Turning to `CNC(=O)/C(C#N)=C/c1ccc(OCCOc2ccccc2)cc1`, the kinetic solubility turned out to be 2.3 µg/mL (≈ 7.13 µM).

`COc1cc2nc(N3CCN(C(=O)c4ccco4)CC3)nc(N)c2cc1OC.Cl` registered a solubility (kinetic) of 61.9 µg/mL. Under `COc1ccc(/C=C/C(=O)OCC(=O)NC2CC2)c(OC)c1` stands above 45.8 µg/mL; under `Cc1cc(C(=O)CSc2nc(N)cc(=O)[nH]2)ccc1F`, 32.5 µg/mL (≈ 111 µM). Under `CCCNC(=O)Cn1c(=O)n(C)c2ccccc21` stands above 37.1 µg/mL.

Take `CCCCCC(=O)Oc1cccc(N2C(=O)C3CCCCC3C2=O)c1` (stereo not drawn): the solubility (kinetic) came out at 4.3 µg/mL (≈ 12.5 µM). `Cc1nc2cc(NCc3cccs3)ccc2n1C` had a solubility (kinetic) of 31.9 µg/mL (≈ 124 µM). In turn, `Cc1ccc(S(=O)(=O)NCc2ccccn2)cc1C` had a solubility (kinetic) above 41.5 µg/mL. The compound `CN(c1ccc(C(=O)N2CCCCC2)cc1)S(=O)(=O)c1cccs1` displayed a kinetic solubility of 52.7 µg/mL (≈ 145 µM). With `O=c1[nH]cnc2c1c(-c1ccccc1)cn2-c1cccc(Cl)c1`, the kinetic solubility is 0.3 µg/mL (≈ 0.932 µM). On to `Cc1cc(=O)[nH]c(NCc2ccc(Cl)cc2)n1`, for which the kinetic solubility was above 37.5 µg/mL.

In turn, `Cc1ccc(NC2=CC(=O)C(=O)c3ccccc32)c(C)c1` yielded a kinetic solubility of 3.5 µg/mL (≈ 12.6 µM). Turning to `O=C(CN1C2CCCC1CC(NC(=O)c1ccccc1)C2)NC1CC1` (stereo not drawn), the solubility (kinetic) was above 51.2 µg/mL.
